{"source": "patent US12060388B2", "about": "“Cell-penetrating peptides and methods of use thereof” (priority 2018, dated 2024)", "key": {"[1]": {"system": "HPV16 PsV", "assay": "HPV16 PsV infectivity in HeLa S3 cells with chemical inhibitors", "type": "cell-based", "settings": "MOI of one, 48 h.p.i.", "procedure": "5×10^4 HeLa S3 or HaCaT cells in 12-well plates were incubated with PsVs at MOI of approximately one. The number of packaged reporter plasmids required to achieve this MOI as assessed by flow cytometry for reporter gene expression from wild-type PsV was quantified by qPCR, and an equivalent number of genomes in mutant PsV were used to infect cells. Approximately five-fold more virus was used to attain this MOI in HaCaT cells. Cells were analyzed by flow cytometry on a Stratedigm-12 flow cytometer to determine the fraction of cells displaying HcRed fluorescence 48 h.p.i. To measure dependence on retromer, 1×10^5 HeLa S3 cells in a 12-well plate were transfected […] to infection with 10 pmol siRNAs targeting Vps29 (Dharmacon, Lafayette, CO; #D-009764-03) or Vps35 (Dharmacon, #D-010894-01) by using RNAiMAX (Thermo Fisher, Waltham, MA, #13778100) according to manufacturer's protocol. Cells transfected with a 10 pmol RISC-free siRNA were used as a control. Forty-eight h.p.i., infectivity was measured by flow cytometry for reporter gene expression. […] Forty-eight h.p.i., infectivity was measured by flow cytometry for HcRed expression. […] Forty-eight h.p.i., infectivity was measured by flow cytometry for HcRed expression."}, "[2]": {"system": "HPV16 PsV containing GFP11-tagged L2", "assay": "Split GFP assay with aphidicolin, HaCaT/GFP1-10NES cells", "type": "cell-based", "settings": "6 μM, MOI of 2000, three h.p.i.", "procedure": "FIG. 12A depicts HeLa S3 cells left untreated or treated with 6 μM aphidicolin. Twenty-four h later, cells were infected at MOI of one with wild-type HPV16 PsV or PsV containing L2-GFP11-CPP or L2-CPP-GFP11. Forty-eight h.p.i., the fraction of infected cells was determined by flow cytometry for HcRed fluorescence and normalized to untreated cells infected with wild-type HPV16 PsV. FIG. 12B depicts HaCaT/GFP1-10NES cells infected at an MOI of 2000 with wild-type HPV16 PsV or PsV containing GFP11-tagged L2 in the presence of absence of 6 μM aphidicolin. Three h.p.i., cells were examined by confocal microscopy for reconstituted GFP fluorescence. Fluorescence in individual cells (˜250 for each condition) is plotted from two independent experiments. […]\nGeneration of stable cell lines. […] Single cells were then plated in a 96-well plate, and monoclonal cell lines were isolated and tested by infection of HPV16-CPP-GFP11 PsV at ˜2000 MOI and monitoring fluorescence. […] Images were acquired with a Leica SP5 inverted fluorescence microscope to identify cell lines expressing cytoplasmic GFP1-10NES. […] Twenty-four hours later, live cells were examined by fluorescence microscopy. […] Twenty-four h later, live cells were examined by fluorescence microscopy. As expected, fluorescence with GFP11-CD8-CIMPR was reconstituted only when the GFP1-10 segment was luminal (FIG. 8F). […]"}, "[3]": {"system": "wild-type HPV16 pseudovirus", "assay": "Peptide inhibition experiment with L2-C, HeLa cells", "type": "cell-based", "settings": "4 μg peptide, infectivity 48 hours later", "procedure": "HeLa cells were treated at 37° C. with 4 μg L2-C, a peptide containing the HPV16 L2 retromer binding site and CPP or mock treated. B represents N terminal biotinylation and Am represents C-terminal amidation. Two hours later, the cells were infected for two hours at 37° C. with wild-type HPV16 pseudovirus. Cells were washed and medium was replenished with medium containing the peptide for 24 hours. Infectivity was tested 48 hours later by using flow cytometry to measure fluorescence of HcRed expressed from a plasmid encapsidated in the pseudovirus particle. Similar results were obtained in two independent experiments.\nHeLa cells were left untreated or treated at 37° C. with 4 μg L2-C, a peptide containing the HPV16 L2 retromer binding site and CPP. The sequence of L2-C is as follows: B-[…]-Am, (SEQ ID NO: 533), where B represents N-terminal biotinylation and Am represents C-terminal amidation. Two hours later, the cells were infected for two hours at 37° C. with wild-type HPV16 pseudovirus. Cells were washed and medium was replenished with medium containing the peptide for 24 hours. Infectivity was tested 48 hours later by using flow cytometry to measure fluorescence of HcRed expressed from a reporter plasmid encapsidated in the pseudovirus particle, and normalized to infectivity of cells infected in the absence of peptide. Similar results were obtained in two independent experiments."}, "[4]": {"system": "HaCaT cells", "assay": "Modulation of CPP action by flanking sequences, GFP fusion proteins on HaCaT cells", "type": "cell-based, human", "procedure": "Fusion proteins with various segments of the C-terminus of HPV16 or HPV5 L2 were added to HaCaT cells. The sequences used are as follows:\nIn some cases, various concentrations of fusion proteins were added to assess efficacy. In other cases, the pH of the culture medium was physiological pH 7 or adjusted to acidic pH 4 prior to peptide addition, or the cells were incubated with peptide at physiological temperature of 37° C. or at 30° C. Activity was assessed by confocal microscopy for intracellular fluorescence. In some experiments, cell surface fluorescence was extinguished by treatment with the membrane-impermeable fluorescence quencher, trypan blue."}, "[5]": {"target": "T1, retromer (Vps35) (Homo sapiens, UniProt O75436+Q96QK1)", "T1 construct": "endogenous in cells; host or cells: HeLa S3 lysate (RIPA-MOPS buffer)", "assay": "Biotinylated peptide pull-down from HeLa S3 lysate, blot for Vps35", "type": "binding", "settings": "streptavidin pull-down", "procedure": "For peptide pull-down experiments, N-terminal biotinylated L2 peptides (sequences shown in FIG. 2A) were purchased from ABClonal Science (Woburn, MA) at >95% purity. L2 wild-type was dissolved initially in 30% acetic acid and DMSO (˜70 μl each), and then dissolved in sterile deionized water with 0.01% sodium azide. L2-6A, L2-3R and L2-DM were initially solubilized in a small amount of DMSO (˜70-80 μl) and then dissolved in sterile deionized water with 0.01% sodium azide. Peptide stocks (5 mg/ml) were aliquoted and stored at −20° C. HeLa S3 cells plated in six-well plates were lysed at ˜80% confluency with 500 μl RIPA-MOPS buffer (20 mM morpholinepropanesulfonic acid [pH 7.0], 150 mM NaCl, 1% Nonidet P-40, 1 mM EDTA, 1% deoxycholic acid, 0.1% sodium dodecyl sulfate [SDS]) supplemented with protease inhibitors (1×HALT protease and phosphatase inhibitor cocktail (Thermo Scientific, Waltham, MA; #78443)). The lysate was centrifuged at 14,000 rpm for 20 min, and the supernatant was incubated with 10 μg of a biotinylated peptide for two h at 4° C. Fifty μl of streptavidin agarose beads slurry (Pierce, Rockford, IL; #20349) was added, and the mixture was gently rocked for 45 min at 4° C. […] Samples were analyzed by SDS-PAGE and immunoblotting with antibody recognizing Vps35 (Abcam, Cambridge, MA; ab57632)."}}, "note": "No end group written: not given here. *: point of attachment. Biotin = O=C1N[C@H]2[C@H](CS[C@H]2CCCCC(=O)*)N1", "data": [{"molecule": "C[C@H](NC(=O)Cc1cc(F)cc(F)c1)C(=O)N[C@H]1N=C(c2ccccc2)c2ccccc2N(C)C1=O", "note": "[XXI]", "values": [{"measurement": "inhibition of wild-type and L2-Tat PsV infection", "setting": "[1]; 250 nM, pretreated one h", "result": "near-complete inhibition"}]}, {"molecule": "C[C@@]1(CO)[C@H](O)CC[C@@]2(C)[C@H]1CC[C@H]1C[C@@H]3C[C@@]12CC[C@]3(O)CO", "note": "[aphidocolin, aphidicolin]", "values": [{"measurement": "reconstituted GFP signal", "setting": "[2]", "result": "did not decrease the reconstituted GFP signal"}, {"measurement": "effect on HPV infection", "setting": "[1]; 6 μM, pretreated 24 h", "result": "inhibited infection"}]}, {"molecule": "B-SPQYTIIADAGDFYLHPSYYMLRKRRKR-Am [L2-C]", "values": [{"measurement": "inhibition of infection by HPV16 PsV", "setting": "[3]", "result": "dramatic inhibition of infection"}]}, {"molecule": "His6-GFP-linker-IPVVIIHPHDSTGDFYLHPSLHRRKRKRKYL [GFP fusion protein with HPV5 C-terminus]", "values": [{"measurement": "cell binding, temperature dependence", "setting": "[4]; three hours, 30° C. or 37° C.", "result": "better at 30 °C than at 37 °C"}]}, {"molecule": "His6-GFP-linker-PQYTIIADAGDFYLHPSYYMLRKRRKR [GFP-21P-CPP]", "values": [{"measurement": "cell binding and entry at pH 7", "setting": "[4]; three hours at 37° C.", "result": "binds"}]}, {"molecule": "His6-GFP-linker-PQYTIIADAGDFYLHPSYYMLRKRRKRLPYFFSDVSLAA [GFP-HPV16 L2]", "values": [{"measurement": "cell binding and entry at pH 4", "setting": "[4]; three hours at 37° C., pH 4", "result": "well"}, {"measurement": "cell binding and entry at pH 7", "setting": "[4]; three hours at 37° C.", "result": "poorly"}]}, {"molecule": "His6-GFP-linker-RKRRKR", "values": [{"measurement": "cell binding and entry at pH 7", "setting": "[4]; three hours at 37° C.", "result": "active in cell binding and internalization, but is not as efficient"}]}, {"molecule": "L2-3R: N-terminal biotinylated C-terminal L2 peptide with the 3R mutation (Biotin-SPQYTIIADAGDFYLHPSYYMLRRR)", "values": [{"measurement": "retromer binding of L2 peptide in vitro", "setting": "[5]", "result": "did not affect retromer binding"}]}]}
